Assay results published in publication PMC4769088, “Antifungal Activity and Action Mechanism of Histatin 5-Halocidin Hybrid Peptides against Candida ssp” (PLoS ONE, 2016).
Like-named read-outs stand apart in the source and are kept apart here. Where a SMILES comes first, the peptide text is derived from it. Bridges are numbered along the chain shown (N, C = ends). Roman numbers before positions name the chains, in order. Where no end group is shown, it is not given here.

Legend:
C.albicans CCARM 14021 = type: cell-based, Candida albicans
Method: (§1) To determine the candidacidal activity of the peptides, we used Candida strains obtained from the Culture collection of antimicrobial resistant microbes at Seoul Women’s University in Korea. These included three Candida albicans (CCARM 14020, 14021, 14022), Candida guillermondi and Candida tropicalis. In addition, Candida albicans SC5413 was kindly provided by Dr Jeong-Yoon Kim at the Department of Microbiology & Molecular Biology, Chungnam University, Korea. Yeast were cultured overnight at 30°C in 10 ml of yeast extract-peptone-dextrose (YPD) broth (Qbiogene), then diluted in 10 ml of YPD broth to OD600 = 0.2 and grown for an additional 4 h with shaking at 30°C until OD600 = 0.8 in order to obtain mid-log phase cultures. The peptides (Hst 5, P113, HHP1, HHP2, PH1, PH2, di-PH1, di-PH2, WP1, di-WP2, di-15Hc and di-18Hc) in this study were synthesized by using standard solid-phase synthesis protocols and were purified by reversed-phase high-performance liquid chromatography at Anygen Inc. (Korea). FITC-labeled peptides (F-Hst5, F-P113, F-HHP1, F-di-PH2, F-di-WP2 and F-di-18Hc) were also synthesized by 6-aminohexnoic acid linker at Anygen (Korea) for confocal experiments.
(§2) The candidacidal activities of the peptides were tested by using standard microdilution plate assays, radial diffusion assays and broth dilution assay slightly modified from the procedure recommended by the National Committee for Clinical Laboratory Standards. For the candidacidal assays, C. albicans cells were grown in YPD medium and washed twice with 10 mM sodium phosphate buffer (NaPB; Na2HPO4, NaH2PO4, pH 7.4). The cells (1 x 10^6) were then mixed with different concentrations of peptides and incubated at 30°C with constant shaking for 60 min. For energy depletion experiments, cells were pre-incubated with 10 mM NaPB containing 5 mM NaN3 at 30°C for 60 min before the addition of peptides. The cell suspensions were diluted in 10 mM NaPB and aliquots of 500 cells were spread onto YPD agar plates then incubated for 24 h at 30°C to visualize the surviving colonies. Cell survival was expressed as a percentage of that for the control, and the loss of viability was calculated as [1 x (number of colonies from peptide-treated cells/number of colonies from control cells)] x 100. Candidacidal assays were performed in triplicate. For the radial diffusion assay, C. albicans cells were grown in YPD medium overnight and washed twice with 10 mM NaPB. Washed yeast-phase C. albicans cells (1 x 10^6 CFU) were trapped in thin underlay gels containing 9 mM sodium phosphate, 1 mM sodium citrate buffer, 1% (wt/vol) agarose (A6013; Sigma), and 0.3 mg of Sabouraud dextrose broth (Difco)/ml. After incubation at 37°C for 3 h, a 10 ml overlay gel of 1% agarose and 6% Sabouraud dextrose broth was poured on the underlay gel and then the plates were incubated overnight at 37°C. The clear-zone diameters were measured to the nearest 0.1 mm and graphed against the peptide concentration. Zone diameters were expressed in units (0.1 mm = 1 unit). For the broth dilution assay, the Candida strains were cultured in LYM broth for 18 h at 30°C. The numbers of yeasts were counted using a hemocytometer. Stock peptide solutions were prepared to a concentration of 320 μg/ml in distilled water, and were then serially diluted twofold, to 5 μg/ml. 100 μl aliquots of the diluted culture media containing candida cells (1 x 10^3) were dispensed into the wells of 96-well polypropylene microtiter plates (Costar 3879, Corning, NY), to which peptide solution (11 μl) was then added. In the experiments conducted to assess the candidacidal activity of peptides in the presence of salt, we used LYM supplemented with 150 mM NaCl for the culture medium, which was mixed with the peptide solution. The antifungal activities were evaluated after 24 h of incubation at 30°C by the observation of visible turbidity the wells. […]

C.albicans CCARM 14022 = type: cell-based, Candida albicans
Method: as §1, §2

C.albicans SC5413 = type: cell-based, Candida albicans; details: SC5413, 24 h
Method: as §1, §2

C.albicans CCARM 14020 = type: cell-based, Candida albicans; details: CCARM 14020, 24 h
Method: as §1, §2

[1] = tested on: C. guilliermondi CCARM 14018; type: cell-based; details: CCARM 14018, 24 h
Method: as §1, §2

[2] = tested on: all tested Candida strains; type: cell-based; details: 4 h
Method: as §1, §2

[3] = broth dilution, LYM broth, 24 h at 30°C, interval a–b

## CC(C)C[C@H](NC(=O)CNC(=O)[C@H](Cc1c[nH]cn1)NC(=O)[C@H](Cc1c[nH]cn1)NC(=O)[C@H](CCCNC(=N)N)NC(=O)[C@H](CCCCN)NC(=O)[C@H](C)N)C(=O)N[C@@H](CC(N)=O)C(=O)N[C@@H](CSSC[C@H](NC(=O)[C@H](CC(N)=O)NC(=O)[C@H](CC(C)C)NC(=O)CNC(=O)[C@H](Cc1c[nH]cn1)NC(=O)[C@H](Cc1c[nH]cn1)NC(=O)[C@H](CCCNC(=N)N)NC(=O)[C@H](CCCCN)NC(=O)[C@H](C)N)C(=O)N[C@@H](C)C(=O)N[C@@H](CCCCN)C(=O)NCC(=O)N[C@H](C(=O)N[C@@H](CC(C)C)C(=O)N[C@@H](C)C(N)=O)C(C)C)C(=O)N[C@@H](C)C(=O)N[C@@H](CCCCN)C(=O)NCC(=O)N[C@H](C(=O)N[C@@H](CC(C)C)C(=O)N[C@@H](C)C(N)=O)C(C)C [di-PH1] (I: H-AKRHHGLNCAKGVLA-NH2 / II: H-AKRHHGLNCAKGVLA-NH2; disulfide I:9-II:9 (inferred); N-terminus assumed)
C.albicans CCARM 14021; CCARM 14021, 24 h
  MICs: 4 to 8 µg/mL
C.albicans CCARM 14022; CCARM 14022, 24 h
  MICs: 4 to 8 µg/mL
C.albicans SC5413
  MICs: 16 to 32 µg/mL
C.albicans CCARM 14020
  MICs: 16 to 32 µg/mL

## AKRHHGLNCAKFH-NH2 [PH2]
C.albicans CCARM 14021; CCARM 14021, 24 h
  MICs: 1 to 2 µg/mL
C.albicans CCARM 14022; CCARM 14022, 24 h
  MICs: 8 to 16 µg/mL
C.albicans SC5413
  MICs: 1 to 2 µg/mL
C.albicans CCARM 14020
  MICs: 1 to 2 µg/mL

## AKRHHGLNCAKGVLA-NH2 [PH1]
C.albicans CCARM 14021; CCARM 14021, 24 h
  MICs: 8 to 16 µg/mL
C.albicans CCARM 14022; CCARM 14022, 24 h
  MICs: 8 to 16 µg/mL
C.albicans SC5413
  MICs: 16 to 32 µg/mL
C.albicans CCARM 14020
  MICs: 16 to 32 µg/mL

## ALLHHGYKRKFH-NH2 [HHP2]
C.albicans CCARM 14021; [3]
  MICs: 32< μg/ml
C.albicans CCARM 14022; [3]
  MICs: 32< μg/ml
C.albicans SC5413
  MICs: 16 to 32 µg/mL
C.albicans CCARM 14020
  MICs: 8 to 16 µg/mL

## WLNAKRHHGYKRKFH-NH2 [WP1]
C.albicans CCARM 14021; CCARM 14021, 24 h
  MICs: 8 to 16 µg/mL
C.albicans CCARM 14022; [3]
  MICs: 32< μg/ml
C.albicans SC5413
  MICs: 4 to 8 µg/mL
C.albicans CCARM 14020
  MICs: 4 to 8 µg/mL

## WLNALLHHGYKRKFH-NH2 [HHP1]
C.albicans CCARM 14021; CCARM 14021, 24 h
  MICs: 2 to 4 µg/mL
C.albicans CCARM 14022; CCARM 14022, 24 h
  MICs: 4 to 8 µg/mL
C.albicans SC5413
  MICs: 2 to 4 µg/mL
C.albicans CCARM 14020
  MICs: 2 to 4 µg/mL
[1]
  MICs: 1 to 2 µg/mL
[2]
  MIC values: 2 to 4 µg/mL
